From PMC4254195 (European journal of medicinal chemistry, 2014) come the findings set out here.

Molecules are shown by their SMILES.

In the assay the target is T1, PTP1B (Homo sapiens, UniProt P18031).
T1 sequence (P18031 1-435): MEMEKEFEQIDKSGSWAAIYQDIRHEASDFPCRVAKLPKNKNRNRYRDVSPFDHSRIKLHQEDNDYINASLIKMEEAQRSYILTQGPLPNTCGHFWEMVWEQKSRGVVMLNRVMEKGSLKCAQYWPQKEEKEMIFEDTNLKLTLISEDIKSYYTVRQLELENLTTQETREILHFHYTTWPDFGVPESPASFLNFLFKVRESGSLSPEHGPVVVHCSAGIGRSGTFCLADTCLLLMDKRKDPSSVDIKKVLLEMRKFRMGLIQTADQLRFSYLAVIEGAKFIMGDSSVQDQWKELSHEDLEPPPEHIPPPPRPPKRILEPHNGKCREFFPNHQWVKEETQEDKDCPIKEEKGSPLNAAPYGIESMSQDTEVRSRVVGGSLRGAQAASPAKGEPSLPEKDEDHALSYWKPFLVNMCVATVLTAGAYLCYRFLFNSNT
Nature of the assay: competition with BiPhYn-1 labelling of PTP1B in cells. The assay is classed as cell-based.

Take `C=CS(=O)(=O)c1ccccc1` [PVSF, phenyl vinyl sulfone]: the “competition with BiPhYn-1 labelling of PTP1B in cells” value is “exhibited loss of detection of oxidized PTP1B with BiPhYn-1 in the presence of increasing concentrations of PVSF”.
